Entries after “also recorded” stand apart in the source; their conditions may differ. Where a name gives a salt, the structure may show the parent alone.
Columns and labels:
[1] = Comparative cardiovascular effects (heart rate, mean arterial pressure, coronary blood flow) after intravenous dosing in anesthetized dogs; assay type: in vivo; details: for effect on heart rate (in words): M2 at 1600 μg/kg, diltiazem at 400 μg/kg; for reduction in heart rate: M2 at a dosage 4 times greater than diltiazem
[2] = dogs; test of dose required to cause a 50% increase in blood flow; cited from earlier work
Side effects = assay type: in vivo; details: compositions
[3] = Elimination and metabolism; assay type: in vivo
Liposolubility = assay type: physicochemical
[4] = anesthetized dogs, 50 μg/kg intravenous, value at 0 μg/kg: D 59, M2 49
[5] = anesthetized dogs, 50 μg/kg intravenous, value at 0 μg/kg: D 99, M2 99
[6] = anesthetized dogs, 200 μg/kg intravenous, value at 0 μg/kg: D 59, M2 49
[7] = anesthetized dogs, 200 μg/kg intravenous, value at 0 μg/kg: D 99, M2 99
[8] = anesthetized dogs, 200 μg/kg intravenous, value at 0 μg/kg: D 130, M2 127

COc1ccc([C@@H]2Sc3ccccc3N(CCN(C)C)C(=O)[C@@H]2OC(C)=O)cc1 [Diltiazem, (+)-cis-3-(acetyloxy)-5-[2-dimethylamino-ethyl]-2,3-dihydro-2-(4-methoxyphenyl)-l,5-benzothiaz epin-4(5H)one monohydrochloride, reference compound]
Coronary blood flow ([1]; anesthetized dogs, 15 μg/kg intravenous, value at 0 μg/kg: D 59): 67 mL/min | Mean arterial pressure ([1]; anesthetized dogs, 15 μg/kg intravenous, value at 0 μg/kg: D 99): 94 mm Hg | Coronary blood flow [1, 4]: 73 mL/min | Mean arterial pressure [1, 5]: 84 mm Hg | Coronary blood flow [1, 6]: 91 mL/min | Mean arterial pressure [1, 7]: 67 mm Hg | Heart rate [1, 8]: 122 beats/minute | Coronary blood flow ([1]; anesthetized dogs, 400 μg/kg intravenous, value at 0 μg/kg: D 59): 83 mL/min | Mean arterial pressure ([1]; anesthetized dogs, 400 μg/kg intravenous, value at 0 μg/kg: D 99): 58 mm Hg | Maximal reduction in mean arterial pressure ([1]; anesthetized dogs, intravenous): -38% | increase in coronary blood flow ([1]; anesthetized dogs, intravenous): > 50% | effect on heart rate (in words) ([1]; anesthetized dogs, intravenous): significant effect on the heart rate | reduction in heart rate ([1]; anesthetized dogs, intravenous): > 20%

CNCCN1C(=O)C(O)C(c2ccc(OC)cc2)Sc2ccccc21 (stereo not drawn) [M2, N-desmethyl, deacetyl diltiazem]
Coronary blood flow [1, 4]: 53 mL/min | Mean arterial pressure [1, 5]: 96 mm Hg | Heart rate ([1]; anesthetized dogs, 50 μg/kg intravenous, value at 0 μg/kg: D 130, M2 127): 127 beats/minute | Coronary blood flow [1, 6]: 55 mL/min | Mean arterial pressure [1, 7]: 88 mm Hg | Heart rate [1, 8]: 127 beats/minute | Coronary blood flow ([1]; anesthetized dogs, 800 μg/kg intravenous, value at 0 μg/kg: M2 49): 61 mL/min | Mean arterial pressure ([1]; anesthetized dogs, 800 μg/kg intravenous, value at 0 μg/kg: M2 99): 74 mm Hg | Heart rate ([1]; anesthetized dogs, 800 μg/kg intravenous, value at 0 μg/kg: M2 127): 125 beats/minute | Coronary blood flow ([1]; anesthetized dogs, 1600 μg/kg intravenous, value at 0 μg/kg: M2 49): 61 mL/min | Mean arterial pressure ([1]; anesthetized dogs, 1600 μg/kg intravenous, value at 0 μg/kg: M2 99): 63 mm Hg | Heart rate ([1]; anesthetized dogs, 1600 μg/kg intravenous, value at 0 μg/kg: M2 127): 119 beats/minute | Maximal reduction in mean arterial pressure ([1]; anesthetized dogs, intravenous): -36% | coronary blood flow dilation relative to diltiazem ([1]; anesthetized dogs, intravenous): about half that effect; also recorded: about half that of diltiazem | increase in coronary blood flow ([1]; anesthetized dogs, intravenous): > 25% | peripheral dilation capacity relative to diltiazem ([1]; anesthetized dogs, intravenous): equivalent peripheral dilation capacity | effect on heart rate (in words) ([1]; anesthetized dogs, intravenous): devoted of major effect upon heart rate | effect on heart rate (in words) ([1]; anesthetized dogs, intravenous, deacetyl diltiazem): only a slight effect on the heart rate | reduction in heart rate ([1]; anesthetized dogs, intravenous): < 10% | serious cardiovascular adverse effects ([1]; anesthetized dogs, maximal dosage 4 times greater than diltiazem): without serious cardiovascular adverse effects | effect on mean arterial pressure (in words) ([1]; anesthetized dogs, various intravenous dosages): decreases the mean arterial pressure | decrease in heart rate compared with diltiazem ([1]; compared with diltiazem): decrease the heart rate to a lesser degree than diltiazem | intravenous dosages suitable for use as a coronary dilator ([1]; intravenous): 50 to 1600 µg/kg | intravenous dosages useful to decrease blood pressure or mean arterial pressure ([1]; intravenous): 200 to 1600 µg/kg | effect on coronary blood flow relative to diltiazem [2]: 20% | side effects compared with diltiazem (Side effects): less side effects than diltiazem | elimination half life compared with diltiazem ([3]; compared with diltiazem): shorter elimination half life | metabolism by the liver ([3]; in vivo): not metabolized extensively by the liver | liposolubility compared with diltiazem (Liposolubility): lower liposolubility than diltiazem
